Reference: patent US20250032448A1, “COMPOUND FOR USE IN THE TREATMENT AND/OR PREVENTION OF PARASITIC MEDIATED DISEASES” (priority 2016, published 2025)
Converted amounts (≈) assume the structure as drawn. Read-outs that look alike come from different tables or passages of the source.

How the values were obtained:
[1] = in vitro; conditions: human
Protocol: (§1) Serial dilutions were performed using complete media (RPMI supplemented with 10% foetal bovine serum). The final concentration of DMSO for all test samples was not more than 0.4%.
(§2) Cytotoxicity was determined using the WST-1 assay (WST-1 cell proliferation reagent, Roche, Singapore). Exponentially growing NL20 cells were plated in 96-well plates at an optimized cell density of 3.5×10^4 cells/100 μl. The adherent cells were incubated overnight at 37° C. and 5% CO2 to allow attachment. After 48 h of treatment with test samples, the media were aspirated and replaced with 10% v/v WST-1 in complete media. The plates were incubated for 30 min. The absorbance in each well was quantitated at 440 nm against a reference wavelength of 650 nm using a microplate reader (EnSpire Multimode Plate Reader, PerkinElmer, USA).
(§3) Cell viability was expressed as a percentage of the vehicle control. […] Each reported value is the mean±SD from three independent experiments. The selectivity index (SI) was determined by taking the ratio of IC50 against P. falciparum and CC50 against NL20 cells.

[2] = test system: NL20 cells; assay: Cytotoxicity assay (WST-1)
Protocol: as §1, §2, §3

[3] = test system: Plasmodium falciparum Dd2 (chloroquine-resistant strain); assay: In vitro drug sensitivity assay (modified WHO microtest), schizont maturation; format: cell-based
Protocol: (§4) For malaria culture, venous blood (not more than 50 ml) was collected by venepuncture from healthy adult volunteers. Host leukocytes were removed using a CF11 column, and packed infected red blood cells were used for the in vitro drug sensitivity assay. Ethical approval for this study was obtained from the Institutional Review Board, National University of Singapore (IRB protocol reference: B-14-056).
(§5) Parasites were thawed and grown in leukocyte-depleted red blood cells at 2% haematocrit at 37° C. in controlled conditions (3% oxygen, 4% carbon dioxide and 93% nitrogen), in RPMI 1640 tissue culture medium supplemented with 50 μg/ml hypoxanthine, 25 mM 4-(2-hydroxyethyl) piperazine-1-ethanesulfonic acid (HEPES), 0.3 g/L L-glutamine, 11 mM glucose, 25 mM NaHCO3, 2.5 μg/ml gentamicin and 0.5% w/v Albumax II.
(§6) Parasites were synchronized using sorbitol treatment. Red blood cells were resuspended in 5% (w/v) D-sorbitol and incubated at 37° C. for 20 minutes, after which the erythrocytes were washed twice, resuspended in RPMI and returned to culture conditions. Thin smears were made before and after each experiment to determine parasitaemia and parasite stage.
(§7) Crude extracts or fractions were preliminarily screened at a single concentration. For preliminary screening of isolated compounds, the starting concentrations used were 11.36 μg/ml and 5.953 μg/ml. Duplicates were performed. […] Seven concentrations of serial dilutions (two-fold) of each extract were added in duplicate on the 96-well pre-dosed drug plates (Nunc, Singapore). […] Triplicates were performed for IC50 determination.
(§8) 200 μl of a 2% haematocrit blood medium mixture consisting of RPMI 1640, […] gentamicin sulphate, 25 mM PEPES, 11 mM glucose, 200 μM hypoxanthine, and 0.5% w/v Albumax II (Gibco, Singapore) was added to each well of plates pre-dosed with the extracts. The parasites were cultured continuously in vented culture flasks in a gas chamber at 37° C. with 5% CO2 until they reached mature stage.
(§9) Thick blood smears were made from each well and stained with 5% Giemsa solution for 15 mins, and examined microscopically. The average number of schizonts (defined as parasites with five or more chromatin dots visible under microscopy) remaining at the end of the 42-48 hour incubation period per 100 parasites in each well was determined by microscopy, and normalized to the control well. Ring stage parasites and gametocytes were not included in the count. The dose-response curves were analysed using nonlinear regression analysis, and the concentration which inhibited 50% growth (IC50) was derived using an inhibitory sigmoid Emax model (Le Nagard et al. 2011).

[4] = test system: Plasmodium falciparum 3D7 (chloroquine-sensitive strain); assay: as above; format: cell-based
Protocol: as §4, §5, §6, §7, §8, §9

[5] = test system: uninfected host RBCs; format: cell-based; conditions: human, 1 h
Protocol: The toxicity of anisolactone in uninfected host RBCs was evaluated using the haemolysis assay, according to a protocol described previously by Sarkar et al. (2016) with some modifications. Freshly obtained RBCs were washed thrice with PBS (pH 7.4). The haemolysis assay was performed at 2% hematocrit with two-fold serial dilutions from 0.1 mg/ml of test compounds in a final volume of 200 μl, followed by incubation at 37° C. for 1 h. 1% Triton-X (v/v) was used as a positive control. Non-specific haemolysis was corrected for by using untreated RBCs as negative control. After incubation, the plates were centrifuged at 2000 rpm for 5 min and the absorbance of the supernatant was measured at 540 nm using a spectrophotometric plate reader (Tecan Sunrise, Switzerland) to measure the amount of haemoglobin released upon RBC lysis. The percentage of haemolysis was calculated as follows: [(Optical density (OD)540 of sample−OD540 of PBS)/(OD540 of 1% Triton X-100−OD540 of PBS)]×100. The compounds were tested in triplicates. Ethics approval for this study was obtained from the Institutional Review Board, National University of Singapore (IRB protocol reference: B-14-056).

[6] = DD2, read-out: IC50 (in μg/ml) against P. falciparum Dd2
[7] = DD2, read-out: IC50 against P. falciparum Dd2 (molar value in brackets)
[8] = 3D7, read-out: IC50 (in μg/ml) against P. falciparum 3D7
[9] = 3D7, read-out: IC50 against P. falciparum 3D7 (Table 4)
[10] = 3D7, read-out: IC50 against P. falciparum 3D7 (molar value in brackets)

Row | SMILES | CC50 at 48 h [1] [µg/mL] | SI (selectivity index) ([2]; P. falciparum 3D7 IC50 versus NL20 CC50) | IC50 [3, 6] [µg/mL] | IC50 [3, 7] [nM] | IC50 [4, 8] [µg/mL] | IC50 [4, 9] [µg/mL] | IC50 [4, 10] [nM] | cytotoxic effects on host cells (NL20) [2] | % Haemolysis [5] [%] | IC50 ([4]; 3D7, as used for the selectivity index, read-out: IC50 against P. falciparum 3D7 (Table 4)) [µg/mL] | IC50 ([4]; 3D7, n = 3, 42-48 hour incubation, read-out: IC50 (in μg/ml) against P. falciparum 3D7) [µg/mL] | IC50 ([4]; 3D7, n=3, read-out: IC50 against P. falciparum 3D7 (molar value in brackets)) [nM]
1 | C[C@H]1[C@H](OC(=O)CCC(=O)O)O[C@@H]2O[C@@]3(C)CC[C@H]4[C@H](C)CC[C@@H]1[C@@]24OO3 [Artesunate, artesunate] | 5.63 ± 0.82 (≈ 14.6 µM) | 8123 | 0.00211 ± 6.8e-07 | 5.48 | 0.000693 ± 1.11e-08 | 0.000693 | 1.8 |  |  |  |  | 
2 | CCN(CC)CCCC(C)Nc1ccnc2cc(Cl)ccc12 (centres unmarked) [Chloroquine, chloroquine diphosphate] |  |  | 0.16 ± 0.04 | 310 | 0.0128 ± 1.4e-05 | 0.0128 | 24.4 |  |  |  |  | 
3 | CC1=CC(C/C(C)=C/COc2c3ccoc3cc3oc(=O)ccc23)OC1=O (centres unmarked) [Compound 1, anisolactone] |  |  |  |  |  |  |  | did not exhibit cytotoxic effects | 0.99 ± 0.28 | 7.5 | 7.5 | 20500
